Measured values from patent US8710246B2, “Substituted thiophene pentamers” (Biochromix Newco AB, priority 2008, dated 2014).
“Also recorded” adds a separate entry of the source.

Legend:
[1] = tested on: Aβ deposits; assay: Long term in vivo effects on amyloid plaques in transgenic mice, cranial window, multiphoton spectroscopy; conditions: tail vein injection, 10 mg/kg
Text: This long lasting binding to the plaques is advantageous for a long term therapeutic effect of the inventive compounds.

[2] = target: T1, Aβ peptide 1-42 (Homo sapiens, UniProt P05067); assay: In vitro fibrillation of Aβ peptide 1-42 followed by TEM; type: biochemical; conditions: for fibrillation morphology by TEM: 20 μM Aβ 1-42, 37° C.
T1 construct: Aβ peptide 1-42 was dissolved in hexafluoroisopropanol
Experimental: Aβ peptide 1-42 was dissolved in hexafluoroisopropanol to a concentration of 1 mg/mL and further diluted to 20 μM in Tris-HCl 5 mM, 75 mM NaCl. The inventive compounds F and G were added in concentrations from 10 to 100 μM and the samples, including references without the inventive compounds, were incubated at 37° C. to initiate fibrillation. After Oh, 20 h and 66 h aliquots were withdrawn, deposited on formvar-carbon coated TEM grids and negatively stained using uranylacetate. A Phillips CM200 run at 200 kV was used to study the progress of fibrillation in the different samples. […] (at Oh). […] These aggregates were covering most of the TEM grid and no smaller fibril or oligomer like structures could be seen. After 66 h of incubation no major change in morphology compared to the 20 h samples could be seen, sheets with separate visible fibrils were found at high density on the grid, of a typical morphology illustrated in FIG. 3.

[3] = tested on: primary chicken neurons; assay: Aβ1-42 induced lesions in primary chicken neurons, MTT viability assay; type: cell-based
Experimental: T:I 1: p-HTAA, Mw=529 g/mol, diluted in vehicle from stock solution in PBS+1.33% DMSO (10 mg/ml).
T:I 2: POWT-13, Mw=2782 g/mol, diluted in vehicle from stock solution in deionized water (40 mg/ml).
Cell source: Telencephalon neurons from 8-day-old chicken embryos (Lohman Brown hybrid)
Nutrition medium: DMEM with 4.5 g glucose/1, 5% Nu Serum, 0.01% gentamycin, 2 mM L-glutamine
Group size: n=6 for each T.I. and R.I. concentration per experiment
Lesion: 10 μM Aβ1-42 (pre-aggregated for 48 h) at DIV8 for 48 h
Evaluation of the effects: MTT on DIV 10
One-day-old fertilized eggs will be stored under appropriate conditions until start of breeding. On embryonic day 0 eggs will be transferred to the breeding incubator and under turning kept at 37.8° C. and 55% humidity until embryonic day eight. […]
Viability of cultures will be determined with the MTT assay using a plate-reader (570 nm) as described e.g. in SOP MET004. […] Since this reaction is catalysed in living cells only this assay can be used for the quantification of cell viability. […] To estimate optical density, a plate-reader (Anthos HT II or pquant) is used at wavelength 570 nm. […]
After 48 hours of incubation of T.I. and Aβ1-42 on cells (DIV10), viability of neurons will be analysed by the MTT assay.

T1 sequence (P05067 672-713 limits assumed): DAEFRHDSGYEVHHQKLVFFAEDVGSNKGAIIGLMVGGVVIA

crossing of the blood brain barrier after intravenous injection ([1]; transgenic mice with AD-like pathology): readily cross the blood brain barrier
effect on the fibrillation of Aβ peptide 1-42 ([2]; overall conclusion, 20 h and 66 h): major effect
Compound: O=C(O)Cc1cc(-c2cccs2)sc1-c1ccc(-c2sc(-c3cccs3)cc2CC(=O)O)s1 [Compound G]
binding to Aβ deposits in living mouse brain one week after injection ([1]; one week after injection): binding of the inventive compounds to AP deposits could still be observed; also recorded: bound to Aβ deposits in living mouse brain one week after injection
fibrillation morphology by TEM ([2]; 10 μM compound, 20 h): no dense aggregates resembling those in the reference sample; also recorded: low density of oligomer like structures
fibrillation morphology by TEM ([2]; 100 μM compound, 20 h): no dense aggregates resembling those in the reference sample; also recorded: low density of short branched fibrils with a very low contrast; also recorded: Short branched fibrils
fibrillation morphology by TEM ([2]; 100 μM compound, 66 h): very few separate short proto-fibrils; also recorded: Short proto-fibrils
viability of neurons (MTT) ([3]; test item added to Aβ1-42 during aggregation, then on cells 48 h, FIG. 12): better viability compared to 10 μM Aβ1-42 alone
viability of neurons (MTT) ([3]; test item and pre-aggregated 10 μM Aβ1-42 applied on neurons simultaneously, 48 h, FIG. 11): better viability compared to 10 μM Aβ1-42 alone
